Source: US7446195B2, “High affinity thiophene-based and furan-based kinase ligands” (Schering Corporation, priority 2005, dated 2008)

Target: CDK-2 (Homo sapiens, UniProt P24941)
Test: CDK-2 inhibition (Table 1; fluorescence polarization displacement assay)
Assay type: binding
Conditions: inhibitory effectiveness toward CDK-2
Description: The affinity of lead inhibitors binding to CDK-2 and CDK-2/cyclin A were determined by measuring a Ki value using a fluorescence polarization displacement assay. The deacetylated form of compound BMS-250595 was reacted with Alexa Fluor 647 to generate a compound (BMS-Alexa Fluor647) that bound to both proteins and provided a signal for fluorescence polarization displacement. Binding assays were performed in a 384 well Costar NBS coated plate. A total volume of […] contained concentrations of CDK-2 or CDK-2/cyclin A at […], respectively. The concentration of BMS-Alexa Fluor647 was 50 nM. Serial dilutions of compounds were added to 12 wells. The final buffer concentration was 10 mM Hepes, pH 7.5, 150 mM NaCl, and 1 mM DTT. Samples were incubated at room temperature for 15 minutes and then read in an Analyst HT instrument using an excitation and emission wavelength of 580 and 680 nm, respectively. The […] curve fitting tool described by Zhang et al., 2004 (Zhang R., Mayhood T., Lipari P., Wang Y., Durkin D., Syto R., Gesell J., McNemar C., and Windsor W., Analytical Biochemistry 331 (2004) 138-146)

Row | Compound | IC50
1 | COc1ccc(NC(=O)c2ccc(C(=O)Nc3ccc(-c4ncn(C)n4)cc3)s2)c(C)c1 [Compound 179] | ≥ 40 µM
2 | O=C(NCCc1ccccn1)c1ccc(C(=O)Nc2ccc(-n3cncn3)cc2)s1 [Compound 156] | ≥ 40 µM
3 | O=C(Nc1ccc(-n2cncn2)cc1)c1ccc(C(=O)Nc2ccc3c(c2)OCO3)s1 [Compound 148] | ≥ 40 µM
4 | COc1ccc(NC(=O)c2ccc(C(=O)Nc3ccc(OCCN(C)C)cc3)s2)c(C)c1 [Compound 125] | ≥ 40 µM
5 | O=C(Nc1ccc(-n2cncn2)c(F)c1)c1ccc(C(=O)Nc2ccccc2COc2ccccc2)s1 [Compound 204] | ≥ 40 µM
6 | COc1ccc(NC(=O)c2ccc(C(=O)Nc3ccc(-n4cncn4)cc3F)s2)c(C)c1 [Compound 180] | ≥ 40 µM
7 | Cc1cnc(NC(=O)c2ccc(C(=O)Nc3ccc(-n4cncn4)cc3)s2)s1 [Compound 155] | ≥ 40 µM
8 | COc1ccc(NC(=O)c2ccc(C(=O)Nc3ccc(Cn4ccnc4)cc3)s2)c(C)c1 [Compound 177] | ≥ 40 µM
9 | CN1CCCC1CCNC(=O)c1ccc(C(=O)Nc2ccc(-n3cncn3)cc2)s1 (stereo not drawn) [Compound 145] | ≥ 40 µM
10 | CN1CCC(NC(=O)c2ccc(C(=O)Nc3ccc(-n4cncn4)c(F)c3)o2)CC1 [Compound 214] | ≥ 40 µM
11 | COC(=O)c1ccc(NC(=O)c2ccc(C(=O)Nc3ccc(OC)cc3C)s2)cc1 [Compound 126] | ≥ 40 µM
12 | CN(C(=O)c1ccc(C(=O)Nc2ccc(-n3cncn3)c(F)c2)o1)C1CCCCC1 [Compound 213] | ≥ 40 µM
13 | O=C(Nc1ccc(-n2cncn2)c(F)c1)c1ccc(C(=O)Nc2ccccc2N2CCOCC2)s1 [Compound 207] | ≥ 40 µM
14 | O=C(Nc1ccc(-n2cncn2)c(F)c1)c1ccc(C(=O)Nc2ccccc2-n2cccn2)s1 [Compound 208] | ≥ 40 µM
15 | O=C(NCc1ccncc1)c1ccc(C(=O)Nc2ccc(-n3cncn3)cc2)s1 [Compound 98] | ≥ 40 µM
16 | O=C(Nc1ccc(-n2cncn2)c(F)c1)c1ccc(C(=O)N2CCOCC2)o1 [Compound 211] | ≥ 40 µM

Row | Compound | IC50
17 | O=C(NC[C@@H]1CCNC1)c1ccc(C(=O)Nc2ccc(-n3cncn3)cc2)s1 [Compound 138] | ≥ 40 µM
18 | COC[C@H](C)NC(=O)c1ccc(C(=O)Nc2ccc(-n3cncn3)cc2)s1 [Compound 88] | ≥ 40 µM
19 | CN(C(=O)c1ccc(C(=O)Nc2ccc(-n3cncn3)cc2)s1)c1ccccc1 [Compound 96] | ≥ 40 µM
20 | O=C(Nc1ccc(-n2cncn2)cc1)c1ccc(C(=O)N[C@@H]2CCNC2)s1 [Compound 136] | ≥ 40 µM
21 | O=C(Nc1ccc(-n2cncn2)cc1)c1ccc(C(=O)Nc2cccc(-c3cnco3)c2)s1 [Compound 162] | ≥ 40 µM
22 | O=C(Nc1ccc(C(=O)Nc2ccc(-n3cncn3)cc2)o1)c1ccncc1 [Compound 185] | ≥ 40 µM
23 | COc1ccc(C(=O)Nc2ccc(C(=O)N3CCC(c4ccccn4)C3)o2)c(C)c1 (stereo not drawn) [Compound 190] | ≥ 40 µM
24 | O=C(Nc1ccc(-n2cncn2)c(F)c1)c1ccc(C(=O)Nc2ccccc2OCc2ccccc2)s1 [Compound 200] | ≥ 40 µM
25 | COc1ccc(NC(=O)c2ccc(C(=O)Nc3ccc(N4CCCCC4)cc3)s2)c(C)c1 [Compound 121] | ≥ 40 µM
26 | O=C(Nc1ccc(-n2cncn2)cc1)c1ccc(C(=O)Nc2ccc3ncsc3c2)s1 [Compound 161] | ≥ 40 µM
27 | COc1ccc(NC(=O)c2ccc(C(=O)Nc3ccc(-c4cnco4)cc3)s2)c(C)c1 [Compound 131] | ≥ 40 µM
28 | COc1ccc(NC(=O)c2ccc(C(=O)Nc3ccc(C#N)cc3)s2)c(C)c1 [Compound 175] | ≥ 40 µM
29 | O=C(Nc1ccc(C(=O)Nc2ccc(-n3cncn3)cc2)s1)c1ccncc1 [Compound 194] | ≥ 40 µM
30 | COc1ccc(C(=O)Nc2ccc(C(=O)N3CCC(Oc4cnccn4)CC3)o2)cc1 [Compound 182] | ≥ 40 µM
31 | O=C(NCCc1c[nH]cn1)c1ccc(C(=O)Nc2ccc(-n3cncn3)cc2)s1 [Compound 103] | ≥ 40 µM
32 | NS(=O)(=O)c1ccc(NC(=O)c2ccc(C(=O)Nc3ccc(-n4cncn4)cc3)s2)cc1 [Compound 118] | ≥ 40 µM

More lines, now with the values ahead:

Row | IC50 | Compound
33 | ≥ 40 µM | COc1ccc(NC(=O)c2ccc(C(=O)Nc3ccc4nc(C)ccc4c3)s2)c(C)c1 [Compound 170]
34 | ≥ 40 µM | O=C(NCCN1CCOCC1)c1ccc(C(=O)Nc2ccc(-n3cncn3)cc2)s1 [Compound 147]
35 | ≤ 1 µM | Cc1cc(OCCN2CCOCC2)ccc1NC(=O)c1ccc(C(=O)Nc2ccc(-n3cncn3)cc2)s1 [Compound 11]
36 | 1 to 40 µM | O=C(Nc1ccncc1)c1ccc(C(=O)Nc2ccc(-n3cncn3)cc2)o1 [Compound 69]
37 | ≤ 1 µM | COc1ccc(C(=O)Nc2ccc(C(=O)Nc3ccc(-c4nc[nH]n4)c(F)c3)s2)c(C)c1 [Compound 8]
38 | ≥ 40 µM | COc1ccc(NC(=O)c2ccc(C(=O)Nc3ccc(N4CCOCC4)nc3)s2)c(C)c1 [Compound 133]
39 | ≥ 40 µM | O=C(NC[C@H](O)c1ccccc1)c1ccc(C(=O)Nc2ccc(-n3cncn3)cc2)s1 [Compound 154]
40 | ≥ 40 µM | O=C(Nc1ccc(-n2cncn2)cc1)c1ccc(C(=O)Nc2ccccn2)s1 [Compound 90]
41 | ≥ 40 µM | Cc1cc(C)nc(NC(=O)c2ccc(C(=O)Nc3ccc(-n4cncn4)cc3)s2)c1 [Compound 109]
42 | ≥ 40 µM | O=C(Nc1ccc(-n2cncn2)cc1)c1ccc(C(=O)Nc2cccc(O)c2)s1 [Compound 163]
43 | ≥ 40 µM | Cn1nc(-c2cccs2)cc1NC(=O)c1ccc(C(=O)Nc2ccc(-n3cncn3)cc2)s1 [Compound 195]
44 | ≥ 40 µM | O=C(Nc1ccc(-n2cncn2)cc1)c1ccc(C(=O)N2CCN(c3ccccc3)CC2)s1 [Compound 117]
45 | ≥ 40 µM | O=C(NCC1CCCCC1)c1ccc(C(=O)Nc2ccc(-n3cncn3)cc2)s1 [Compound 106]
46 | ≥ 40 µM | O=C(NCc1ccc2c(c1)CCO2)c1ccc(C(=O)Nc2ccc(-n3cncn3)cc2)s1 [Compound 115]
47 | 1 to 40 µM | COc1ccc(N(C)C(=O)c2ccc(C(=O)Nc3ccc(-n4cncn4)cc3)s2)c(C)c1 [Compound 72]
48 | ≥ 40 µM | COc1ccc(C(=O)Nc2ccc(C(=O)Nc3ccc(-n4cncn4)cc3)o2)c(C)c1 [Compound 186]
49 | ≥ 40 µM | O=C(Nc1ccc(-n2cncn2)cc1)c1ccc(C(=O)N2CCN(C3CCCC3)CC2)s1 [Compound 152]
50 | ≥ 40 µM | O=C(Nc1ccc(-n2cncn2)cc1)c1ccc(C(=O)N[C@@H]2CCc3ccccc32)s1 [Compound 113]
51 | ≥ 40 µM | COc1ccc(NC(=O)c2ccc(C(=O)Nc3ccc(-n4cncn4)cc3)s2)cc1F [Compound 149]
52 | ≥ 40 µM | Cc1cnc(CNC(=O)c2ccc(C(=O)Nc3ccc(-n4cncn4)cc3)s2)cn1 [Compound 111]
53 | ≥ 40 µM | CNC(=O)c1ccc(C(=O)Nc2ccc(-n3cncn3)c(F)c2)o1 [Compound 215]
54 | ≥ 40 µM | COc1ccc(NC(=O)c2ccc(C(=O)Nc3ccc(C(N)=O)cc3)s2)c(C)c1 [Compound 176]

Row | IC50 | Compound
55 | ≥ 40 µM | Cn1cnc(CCNC(=O)c2ccc(C(=O)Nc3ccc(-n4cncn4)cc3)s2)c1 [Compound 143]
56 | ≥ 40 µM | Cc1cc(CNC(=O)c2ccc(C(=O)Nc3ccc(-n4cncn4)cc3)s2)no1 [Compound 105]
57 | 1 to 40 µM | O=C(Nc1ccc(-n2cncn2)cc1)c1ccc(C(=O)Nc2nc3c(s2)CCCC3)s1 [Compound 60]
58 | ≥ 40 µM | COc1ccc(C(=O)Nc2ccc(C(=O)N3CCC(c4ccncc4)C3)o2)c(C)c1 (stereo not drawn) [Compound 191]
59 | ≥ 40 µM | Cc1ccccc1C(=O)Nc1ccc(C(=O)Nc2ccc(-n3cncn3)cc2)o1 [Compound 184]
60 | ≥ 40 µM | O=C(NC[C@@H]1CCCO1)c1ccc(C(=O)Nc2ccc(-n3cncn3)cc2)s1 [Compound 94]
61 | ≥ 40 µM | CN(C)CCNC(=O)c1ccc(C(=O)Nc2ccc(-n3cncn3)cc2)s1 [Compound 87]
62 | ≥ 40 µM | COc1ccc(C(=O)Nc2ccc(C(=O)N3CCC(Oc4cnccn4)CC3)o2)c(C)c1 [Compound 192]
63 | ≥ 40 µM | CN1CCN(c2ccccc2NC(=O)c2ccc(C(=O)Nc3ccc(-n4cncn4)c(F)c3)s2)CC1 [Compound 209]
64 | ≤ 1 µM | Cc1cc(N(C)CCN(C)C)ccc1NC(=O)c1ccc(C(=O)Nc2ccc(-n3cncn3)cc2)s1 [Compound 36]
65 | 1 to 40 µM | COC(=O)c1cc(OC)ccc1NC(=O)c1ccc(C(=O)Nc2ccc(-n3cncn3)cc2)s1 [Compound 75]
66 | 1 to 40 µM | O=C(Nc1ccc(-n2cncn2)cc1)c1ccc(C(=O)Nc2nc3ccccc3s2)s1 [Compound 58]
67 | 1 to 40 µM | O=C(NCCc1cccnc1)c1ccc(C(=O)Nc2ccc(-n3cncn3)cc2)s1 [Compound 78]
68 | 1 to 40 µM | COc1ccc(NC(=O)c2ccc(C(=O)N3CCC(Oc4cnccn4)CC3)s2)c(C)c1 [Compound 41]
69 | 1 to 40 µM | CC(=O)N1CCC(NC(=O)c2ccc(C(=O)Nc3ccc(-n4cncn4)cc3)s2)CC1 [Compound 57]
70 | ≤ 1 µM | COc1ccc(NC(=O)c2ccc(C(=O)Nc3ccc(-c4nc[nH]n4)c(F)c3)s2)c(C)c1 [Compound 22]
71 | 1 to 40 µM | O=C(NCCN1CCCC1)c1ccc(C(=O)Nc2ccc(-n3cncn3)cc2)s1 [Compound 52]
72 | 1 to 40 µM | COc1cccc(NC(=O)c2ccc(C(=O)Nc3ccc(-n4cncn4)cc3)s2)c1OC [Compound 59]
73 | 1 to 40 µM | Cn1nc(C2CC2)cc1NC(=O)c1ccc(C(=O)Nc2ccc(-n3cncn3)cc2)s1 [Compound 64]
74 | ≤ 1 µM | COc1ccc(C(=O)Nc2ccc(C(=O)Nc3ccc(-n4cncn4)c(F)c3)s2)c(C)c1 [Compound 14]
75 | ≤ 1 µM | Cc1ccccc1NC(=O)c1ccc(C(=O)Nc2ccc(-n3cncn3)cc2)s1 [Compound 24]
